Measurements: article PMC11466185, “Mechanisms and efficacy of small molecule latency-promoting agents to inhibit HIV reactivation ex vivo” (JCI Insight, 2024)
“And” between values parts separate entries of the source, which are not always exact repeats. Equal entries are not always repeated.

Legend:
[1] = tested on: HIV transcripts (TAR, LLTR, Pol, PolyA, TatRev); assay: Cell-associated HIV transcripts (RT-ddPCR) 6 days after anti-CD3/CD28 activation of PBMCs from ART-suppressed PWH; format: cell-based; conditions: for LLTR/TAR / PolyA/LLTR / TatRev/PolyA: DMSO+CD3/28 = 1, Fig 4B, C and D; for Pol / PolyA / TAR / TatRev: DMSO αCD3/28 = 100, Fig 4A
Protocol: Next, we evaluated the ability of the candidate LPAs to sustain the inhibitory effects during a prolonged ex vivo culture. To this end, PBMCs were cultured in the presence of individual drugs in DMSO or in DMSO alone as control, activated (anti-CD3/CD28), and harvested after 6 days. […] However, we decided to test the drug on day 6 because extra cells were available from some study participants.
Each drug was tested in PBMCs from at least 6 ART-suppressed study participants (except for KRIBB11, n = 5). PBMCs were aliquoted into wells at 6 × 10^6 cells/well. After activation, the cells were cultured with antiretrovirals in the presence of individual drugs in DMSO or DMSO alone as control. All conditions were tested in the presence of CD3/28 T cell–activating beads, except for the unactivated DMSO condition. After 6 days, total cellular RNA was extracted, and the progression through different stages of HIV transcription was quantified by measuring the levels of initiated (TAR), 5′ elongated (LLTR), midtranscribed/unspliced (Pol), completed (PolyA), and multiply spliced (TatRev) HIV transcripts. (A) The levels of all HIV transcripts were normalized to 1 μg of total cellular RNA and expressed as a percentage of the activated DMSO control (% of activated DMSO). Medians are shown as well as the individual values per study participant in different colors. (B–D) The effect of each drug on HIV transcriptional progression after activation was analyzed by the ratio of one HIV transcript to another. Ratios are independent of HIV infection frequency or normalization to cell numbers. Shown are the proportion of (B) all HIV transcripts that are elongated (LLTR/TAR), (C) elongated HIV transcripts that are completed (PolyA/LLTR), and (D) completed transcripts that are multiply spliced (TatRev/PolyA). Medians and IQR are presented, along with the individual values per study participant in different colors. P values were calculated using Wilcoxon’s signed-rank test: *P < 0.05.
PBMCs were isolated from fresh venous blood from 16 ART-suppressed HIV-infected study participants using Ficoll density gradient centrifugation. The cells were seeded at 6 × 10^6 cells/well and cultured with antiretrovirals (nevirapine and indinavir) to prevent new infection. On the next day, PBMCs were activated with anti-CD3/CD28–coated beads (Invitrogen) in the presence of 20 U/mL IL-2 and individual drugs in DMSO or DMSO alone as a control. Since we were limited in the PBMC yield per study participant, different study participants were used for different experiments (such as the initial screen, dose response, different time points, and studies in activated vs. unstimulated cells). In addition, the yields of PBMCs were sometimes insufficient to test all drugs for a given question or experiment.
For quantification of cell-associated HIV transcripts, PBMCs were harvested either after 24 hours or after 6 days. The cell viabilities were measured by trypan blue staining; then the cells were pelleted by centrifuging at 300g for 6 minutes and stored at –80°C. For quantification of virion-associated HIV RNA, cell culture supernatant was collected from 6 × 10^6 PBMCs that were treated and activated for 6 days as described above. Residual cells and cellular debris were subsequently removed from the supernatant by differential centrifugation (300g for 6 minutes, then 20,000g for 10 minutes), and the supernatant was stored at –80°C.
Total cellular DNA and RNA were extracted in parallel using Trireagent (Molecular Research Center) according to the manufacturer’s instructions, except for study participants 2147 and 2461 (Figure 4), for whom DNA and RNA were extracted using the QIAGEN AllPrep DNA/RNA/miRNA Universal Kit with on-column DNase I treatment of the RNA and the manufacturer’s modification to enhance recovery of short transcripts.

PBMCs = assay: Total number of live cells (proliferation) by trypan blue staining at day 6; format: cell-based, human; conditions: for Total live cell numbers (proliferation) compared with activated DMSO (in words) / Total number of live cells (Fig 6A): day 6; for Total live cell numbers (proliferation) compared with activated DMSO (in words): Figure 6A; for Fig 6B: total live cells relative to DMSO+CD3/28: DMSO+CD3/28 = 100
Protocol: Some of our candidate LPAs can block the effects of T cell activation, which could affect T cell proliferation. Therefore, we evaluated the extent to which variations in the level of infected cells may contribute to reductions in different HIV RNA transcripts. We measured the total number of viable cells (as a measure of proliferation) and the conserved U3-U5 LTR HIV DNA region (as a measure of total infection frequency) at day 6.
(A) After 6 days, the total number of live cells was measured by trypan blue staining and then normalized to the levels of the activated DMSO (% of activated DMSO). All conditions were tested in the presence of CD3^+/CD28^+ T cell–activating beads, except for the unactivated DMSO condition. Bars indicate medians, and different colors indicate individual study participants. Comparisons were performed using Wilcoxon’s signed-rank test. (B) Total cellular DNA was extracted, and the levels of U3-U5 HIV DNA were measured to quantify infection frequency at 6 days. HIV DNA levels were normalized to copies per 10^6 cells using the input of cellular DNA (assuming 1 μg of total DNA corresponds to 160,000 cells) and then normalized to the activated DMSO control (% of activated DMSO). Bars indicate medians, and different colors indicate individual study participants.

`N#CC[C@H](C1CCCC1)n1cc(-c2ncnc3[nH]ccc23)cn1` [ruxolitinib] showed an LLTR/TAR ([1]; participant 150b) of 0.6749, a PolyA/LLTR ([1]; participant 150b) of 0.4135 and a TatRev/PolyA ([1]; participant 150b) of 0.45. For the same compound, the LLTR/TAR ([1]; participant 2027) was 0.1463, the PolyA/LLTR ([1]; participant 2027) was 0.4929 and the TatRev/PolyA ([1]; participant 2027) was 0. For the same compound, the LLTR/TAR ([1]; participant 2147a) was 0.473, the PolyA/LLTR ([1]; participant 2147a) was 0.2896 and the TatRev/PolyA ([1]; participant 2147a) was 0. It also gave an LLTR/TAR ([1]; participant 2161) of 2.396, a PolyA/LLTR ([1]; participant 2161) of 0.46 and a TatRev/PolyA ([1]; participant 2161) of 0. For the same compound, the LLTR/TAR ([1]; participant 2461) was 3.402, the PolyA/LLTR ([1]; participant 2461) was 0 and the LLTR/TAR ([1]; participant 2747) was 0.4032. It also gave a PolyA/LLTR ([1]; participant 2747) of 1.05, a TatRev/PolyA ([1]; participant 2747) of 0 and an LLTR/TAR ([1]; participant 2750) of 1.117. For the same compound, the PolyA/LLTR ([1]; participant 2750) was 1.35, the TatRev/PolyA ([1]; participant 2750) was 1.555 and the “Total live cell numbers (proliferation) compared with activated DMSO (in words)” value (PBMCs) was “significantly lower”.

With `CNc1ccc([N+](=O)[O-])c(Nc2ccc3[nH]ncc3c2)n1` [KRIBB11] the “LLTR HIV transcripts (DMSO αCD3/28 = 100)” value ([1]; 2.5μM, 6 days after αCD3/28 activation, each column one participant) was 71.6 and 44.44 and 38.82 and 82.14 and 98.47, the Pol ([1]; participant 2027) was 73.68 and the PolyA ([1]; participant 2027) was 106.67. It also gave a TAR ([1]; participant 2027) of 139.39, a TatRev ([1]; participant 2027) of 11.11 and an LLTR/TAR ([1]; participant 2027) of 0.5893. It also gave a PolyA/LLTR ([1]; participant 2027) of 1.299, a TatRev/PolyA ([1]; participant 2027) of 0.1042 and a Pol ([1]; participant 2147a) of 33.33. The PolyA ([1]; participant 2147a) was 22.8, the TAR ([1]; participant 2147a) was 563.24 and the TatRev ([1]; participant 2147a) was 46.99. It also gave an LLTR/TAR ([1]; participant 2147a) of 0.1271, a PolyA/LLTR ([1]; participant 2147a) of 0.3184 and a TatRev/PolyA ([1]; participant 2147a) of 1.2464. The Pol ([1]; participant 2256) was 169.23, the PolyA ([1]; participant 2256) was 89.76 and the TAR ([1]; participant 2256) was 111.27. For the same compound, the TatRev ([1]; participant 2256) was 84.19, the LLTR/TAR ([1]; participant 2256) was 0.8849 and the PolyA/LLTR ([1]; participant 2256) was 0.9116. It also gave a TatRev/PolyA ([1]; participant 2256) of 1.489, a PolyA ([1]; participant 2461) of 176.92 and a TAR ([1]; participant 2461) of 67.9. The LLTR/TAR ([1]; participant 2461) was 0.5717, the PolyA/LLTR ([1]; participant 2461) was 4.558 and the Pol ([1]; participant 2747) was 8.97. The PolyA ([1]; participant 2747) was 19.67, the TAR ([1]; participant 2747) was 56.38 and the TatRev ([1]; participant 2747) was 30. The “Total live cell numbers (proliferation) compared with activated DMSO (in words)” value (PBMCs) was “did not change proliferation rates”, the “Fig 6B: total live cells relative to DMSO+CD3/28” value (PBMCs; participant 2027) was 80 and the “Fig 6B: total live cells relative to DMSO+CD3/28” value (PBMCs; participant 2147a) was 78.71. For the same compound, the “Fig 6B: total live cells relative to DMSO+CD3/28” value (PBMCs; participant 2147b) was 84.85, the “Fig 6B: total live cells relative to DMSO+CD3/28” value (PBMCs; participant 2256) was 100 and the “Fig 6B: total live cells relative to DMSO+CD3/28” value (PBMCs; participant 2461) was 133.29. The “Fig 6B: total live cells relative to DMSO+CD3/28” value (PBMCs; participant 2747) was 114.29, the “Total number of live cells (Fig 6A)” value (PBMCs; study participant 150a) was 109.33 % of activated DMSO and the “Total number of live cells (Fig 6A)” value (PBMCs; study participant 156) was 86.05 % of activated DMSO. For the same compound, the “Total number of live cells (Fig 6A)” value (PBMCs; study participant 163) was 93.17 % of activated DMSO, the “Total number of live cells (Fig 6A)” value (PBMCs; study participant 2027) was 77.91 % of activated DMSO and the “Total number of live cells (Fig 6A)” value (PBMCs; study participant 2147a) was 131.05 % of activated DMSO. The “Total number of live cells (Fig 6A)” value (PBMCs; study participant 2147b) was 144.41 % of activated DMSO, the “Total number of live cells (Fig 6A)” value (PBMCs; study participant 2256) was 80.69 % of activated DMSO and the “Total number of live cells (Fig 6A)” value (PBMCs; study participant 2461) was 93.23 % of activated DMSO. The “Total number of live cells (Fig 6A)” value (PBMCs; study participant 2747) was 107.08 % of activated DMSO.
